# According to patent US9260408B2, “Dihydroquinoline-2-one derivatives” (Hoffmann-La Roche Inc., priority 2011, dated 2016):
# Structures can show the parent of a compound that is named as a salt.
# Legend:
# [1] = biological target: T1, human CYP11B2 (Homo sapiens, UniProt P19099); experiment: G-402 cellular enzyme assay, human CYP11B2 (aldosterone release, HTRF); format: cell-based; details: G-402 cells expressing human CYP11B2; 1 μM Deoxycorticosterone
# T1 construct: expressed in transfected cells
# T1 sequence (P19099 25-503): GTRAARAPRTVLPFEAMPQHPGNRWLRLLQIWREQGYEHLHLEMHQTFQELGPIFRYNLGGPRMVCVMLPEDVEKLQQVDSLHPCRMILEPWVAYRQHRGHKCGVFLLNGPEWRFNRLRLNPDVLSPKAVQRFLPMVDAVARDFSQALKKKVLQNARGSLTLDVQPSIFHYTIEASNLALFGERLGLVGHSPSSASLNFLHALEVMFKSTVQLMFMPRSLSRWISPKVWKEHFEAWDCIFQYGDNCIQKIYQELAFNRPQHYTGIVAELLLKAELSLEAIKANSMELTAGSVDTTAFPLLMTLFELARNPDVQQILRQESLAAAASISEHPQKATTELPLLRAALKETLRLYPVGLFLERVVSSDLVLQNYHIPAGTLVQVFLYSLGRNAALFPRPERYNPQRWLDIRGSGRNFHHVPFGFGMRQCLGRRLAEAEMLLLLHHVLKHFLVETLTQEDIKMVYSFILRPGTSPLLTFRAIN
# Source text: (§1) Herein we identified the use of the G-402 cell line as a host cell to ectopically express (transiently or stably) enzymes of the CYP11 family. Specifically we developed stable G-402 cells expressing ectopically human CYP11B1, human CYP11B2, human CYP11A1, cynomolgus CYP11B1 or cynomolgus CYP11B2 enzyme activity. Importantly the identified cell line G-402 expresses co-factors (adrenodoxin and adrenodoxin reductase) important for the activity of the CYP11 family and no relevant enzyme activity of the CYP11 family (in comparison to H295R cells) was detected in these cells. Therefore the G-402 cell line is uniquely suited as a host cell for the ectopic expression of enzymes from the CYP11 family.
# (§2) G-402 cells can be obtained from ATCC(CRL-1440) and were originally derived from a renal leiomyoblastoma.
# (§3) The expression plasmids contains the ORF for either human/cyno CYP11B1 or CYP11B2 under the control of a suitable promoter (CMV-promoter) and a suitable resistance marker (neomycin). Using standard techniques the expression plasmid is transfected into G-402 cells and these cells are then selected for expressing the given resistance markers. Individual cell-clones are then selected and assessed for displaying the desired enzymatic activity using 11-Deoxycorticosterone (Cyp11B2) or 11-Deoxycortisol (Cyp11B1) as a substrate.
# (§4) G-402 cells expressing CYP11 constructs were established as described above and maintained in McCoy's 5a Medium Modified, ATCC Catalog No. 30-2007 containing 10% FCS and 400 μg/ml G418 (Geneticin) at 37° C. under an atmosphere of 5% CO2/95% air. Cellular enzyme assays were performed in DMEM/F12 medium containing 2.5% charcoal treated FCS and appropriate concentration of substrate (0.3-10 uM 11-Deoxycorticosterone, 11-Deoxycortisol or Corticosterone). For assaying enzymatic activity, cells were plated onto 96 well plates and incubated for 16 h. An aliquot of the supernatant is then transferred and analyzed for the concentration of the expected product (Aldosterone for CYP11B2; Cortisol for CYP11B1). The concentrations of these steroids can be determined using HTRF assays from CisBio analyzing either Aldosterone or Cortisol.
# (§5) Inhibition of the release of produced steroids can be used as a measure of the respective enzyme inhibition by test compounds added during the cellular enzyme assay. The dose dependent inhibition of enzymatic activity by a compound is calculated by means of plotting added inhibitor concentrations (x-axes) vs. measured steroid/product level (y-axes). The inhibition is then calculated by fitting the following 4-parameter sigmoidal function (Morgan-Mercer-Flodin (MMF) model) to the raw data points using the least squares method:
# (§6) [formula] wherein, A is the maximum y value, B is the EC50 factor determined using XLFit, C is the minimum y value and D is the slope value.
# (§7) EC50 values for compounds claimed herein were tested with the G402-based assay system described. Cyp11B2 enzyme activity was tested in presence of 1 μM Deoxycorticosterone and variable amounts of inhibitors; Cyp11B1 enzyme activity was tested in presence of 1 μM Deoxycortisol and variable amounts of inhibitors.
# [2] = biological target: T2, human CYP11B1 (Homo sapiens, UniProt P15538); experiment: G-402 cellular enzyme assay, human CYP11B1 (cortisol release, HTRF); format: cell-based; details: G-402 cells expressing human CYP11B1; 1 μM Deoxycortisol
# T2 construct: expressed in transfected cells
# T2 sequence (P15538 25-503): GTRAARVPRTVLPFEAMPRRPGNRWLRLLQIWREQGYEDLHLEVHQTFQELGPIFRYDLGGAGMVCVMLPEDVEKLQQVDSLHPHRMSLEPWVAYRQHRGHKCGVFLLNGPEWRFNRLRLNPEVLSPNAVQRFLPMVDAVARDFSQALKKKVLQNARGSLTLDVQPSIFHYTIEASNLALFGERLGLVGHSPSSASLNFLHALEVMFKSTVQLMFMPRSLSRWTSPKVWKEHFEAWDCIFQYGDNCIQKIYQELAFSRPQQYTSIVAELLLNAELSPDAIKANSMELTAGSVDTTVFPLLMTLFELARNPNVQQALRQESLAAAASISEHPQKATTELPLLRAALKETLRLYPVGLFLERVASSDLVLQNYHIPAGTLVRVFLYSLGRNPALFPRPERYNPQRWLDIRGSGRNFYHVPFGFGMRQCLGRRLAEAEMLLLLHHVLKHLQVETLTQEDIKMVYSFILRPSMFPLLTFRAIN
# Source text: as §1, §2, §3, §4, §5, §6, §7
Compound,EC50 [1],EC50 [2]
"Cc1c(-c2cc3c(cc2F)N(C)C(=O)CC3)cncc1C(C)N (single isomer, unassigned) [Example 253, 6-[5-((R or S)-1-Amino-ethyl)-4-methyl-pyridin-3-yl]-7-fluoro-1-methyl-3,4-dihydro-1H-quinolin-2-one hydrochloride]",193 nM,4480 nM
"CN1C(=O)CCc2cc(-c3cncc(OC4CN(C(=O)OC(C)(C)C)C4)c3)ccc21 [Example 47, 3-[5-(1-Methyl-2-oxo-1,2,3,4-tetrahydro-quinolin-6-yl)-pyridin-3-yloxy]-azetidine-1-carboxylic acid tert-butyl ester]",3 nM,61 nM
"CC(=O)N1CC[C@H](Oc2cncc(-c3ccc4c(c3)CCC(=O)N4C)c2)C1 [Example 254, 6-[5-((S)-1-Acetyl-pyrrolidin-3-yloxy)-pyridin-3-yl]-1-methyl-3,4-dihydro-1H-quinolin-2-one]",1 nM,49 nM
"Cc1c(-c2cc3c(cc2F)N(C)C(=O)CC3)cncc1C(C)N[S@+]([O-])C(C)(C)C (single isomer, unassigned) [Example 252, (R)-2-Methyl-propane-2-sulfinic acid {(R or S)-1-[5-(7-fluoro-1-methyl-2-oxo-1,2,3,4-tetrahydro-quinolin-6-yl)-4-methyl-pyridin-3-yl]-ethyl}-amide]",26 nM,468 nM
Cc1noc(C)c1C(=O)NC1(c2cncc(-c3ccc4c(c3)CCC(=O)N4C)c2)CC1 [Example 113],75 nM,1570 nM
Cc1cccnc1C(=O)NC1(c2cncc(-c3ccc4c(c3)CCC(=O)N4C)c2)CC1 [Example 143],9 nM,51 nM
"CN1C(=O)CCc2cc(-c3cncc(OC[C@@H]4CCN4)c3)ccc21 [Example 63, 6-[5-((S)-1-Azetidin-2-ylmethoxy)-pyridin-3-yl]-1-methyl-3,4-dihydro-1H-quinolin-2-one]",731 nM,16000 nM
"CN1C(=O)CCc2cc(-c3cncc(OC[C@@H]4CCCN4)c3)ccc21 [Example 66, 1-Methyl-6-[5-((S)-1-pyrrolidin-2-ylmethoxy)-pyridin-3-yl]-3,4-dihydro-1H-quinolin-2-one hydrochloride]",710 nM,
"CN1C(=O)CCc2cc(-c3cncc(C4(N[S@+]([O-])C(C)(C)C)COC4)c3)ccc21 [Example 54, (R)-2-Methyl-propane-2-sulfinic acid {3-[5-(1-methyl-2-oxo-1,2,3,4-tetrahydro-quinolin-6-yl)-pyridin-3-yl]-oxetan-3-yl}-amide]",,3850 nM
"CN1C(=O)CCc2cc(-c3cncc(C4CCN(C(=O)OC(C)(C)C)CC4)c3)ccc21 [Example 260, 5-(1-Methyl-2-oxo-1,2,3,4-tetrahydro-quinolin-6-yl)-3′,4′,5′,6′-tetrahydro-2′H-[3,4′]bipyridinyl-1′-carboxylic acid tert-butyl ester]",,1 nM
"COc1cc(C(=O)N2CC3(C2)CN(c2cncc(-c4ccc5c(c4)CCC(=O)N5C)n2)C3)on1 [Example 74, 6-{6-[6-(3-Methoxy-isoxazole-5-carbonyl)-2,6-diaza-spiro[3.3]hept-2-yl]-pyrazin-2-yl}-1-methyl-3,4-dihydro-1H-quinolin-2-one]",286 nM,

# Results, then the molecule that gave them:
EC50 [1],EC50 [2],Compound
3 nM,20 nM,CN1C(=O)CCc2cc(-c3cncc(CN4CCS(=O)(=O)CC4)c3)ccc21 [Example 20]
1 nM,13 nM,CCC(=O)N1CCC(Oc2cncc(-c3ccc4c(c3)CCC(=O)N4C)c2)CC1 [Example 88]
8 nM,142 nM,CN1C(=O)CCc2cc(-c3cncc(CNC(=O)c4cccc(Cl)n4)c3)ccc21 [Example 114]
175 nM,3780 nM,CN1C(=O)CCc2cc(-c3cncc(CNC(=O)c4cnoc4C(F)(F)F)c3)ccc21 [Example 145]
21 nM,401 nM,"Cc1c(-c2ccc3c(c2)CCC(=O)N3C)cncc1C(C)N[S@+]([O-])C(C)(C)C (single isomer, unassigned) [Example 239, (R)-2-Methyl-propane-2-sulfinic acid {(R or S)-1-[4-methyl-5-(1-methyl-2-oxo-1,2,3,4-tetrahydro-quinolin-6-yl)-pyridin-3-yl]-ethyl}-amide]"
15 nM,750 nM,"COc1cc(C(=O)NCc2cncc(-c3ccc4c(c3)CCC(=O)N4C)c2)on1 [Example 40, 3-Methoxy-isoxazole-5-carboxylic acid [5-(1-methyl-2-oxo-1,2,3,4-tetrahydro-quinolin-6-yl)-pyridin-3-ylmethyl]-amide]"
162 nM,10500 nM,CCC(=O)NC1(c2cncc(-c3ccc4c(c3)CCC(=O)N4C)c2)COC1 [Example 130]
35 nM,1250 nM,"CC(N)c1cncc(-c2ccc3c(c2)CCC(=O)N3C)c1Cl (single isomer, unassigned) [Example 250, 6-[5-((R or S)-1-Amino-ethyl)-4-chloro-pyridin-3-yl]-1-methyl-3,4-dihydro-1H-quinolin-2-one hydrochloride]"
22 nM,1010 nM,"CCS(=O)(=O)NCc1cncc(-c2ccc3c(c2)CCC(=O)N3C)c1Cl [Example 193, Ethanesulfonic acid [4-chloro-5-(1-methyl-2-oxo-1,2,3,4-tetrahydro-quinolin-6-yl)-pyridin-3-ylmethyl]-amide]"
,7 nM,"CCS(=O)(=O)N(C)CCOc1cncc(-c2cc3c(cc2F)N(C)C(=O)CC3)c1 [Example 248, Ethanesulfonic acid {2-[5-(7-fluoro-1-methyl-2-oxo-1,2,3,4-tetrahydro-quinolin-6-yl)-pyridin-3-yloxy]-ethyl}-methyl-amide]"
3100 nM,,"CCS(=O)(=O)NCc1cncc(-c2cc(F)c3c(ccc(=O)n3C)c2)c1 [Example 263, Ethanesulfonic acid [5-(8-fluoro-1-methyl-2-oxo-1,2-dihydro-quinolin-6-yl)-pyridin-3-ylmethyl]-amide]"
,8 nM,Cc1cc(Cl)cnc1C(=O)NCc1cncc(-c2ccc3c(c2)CCC(=O)N3C)c1 [Example 120]
685 nM,,"CN1C(=O)CCc2cc(-c3cncc(O[C@H]4CCNC4)c3)ccc21 [Example 60, 1-methyl-6-[5-((S)-pyrrolidin-3-yloxy)-pyridin-3-yl]-3,4-dihydro-1H-quinolin-2-one hydrochloride]"
128 nM,,"CCS(=O)(=O)NC(c1cncc(-c2ccc3c(c2)CCC(=O)N3C)c1)C(C)C (racemic) [Example 176, (rac)-Ethanesulfonic acid {2-methyl-1-[5-(1-methyl-2-oxo-1,2,3,4-tetrahydro-quinolin-6-yl)-pyridin-3-yl]-propyl}-amide]"
